Measured values from publication PMC5218480 (PLoS ONE, 2017).

Tested on: MV-4-11 cells
Assay: Gene expression microarray analysis (Affymetrix PrimeView) and GSEA
Type: cell-based, human
Parameters: RFU PODN (11730768_x_at) / Fold change /veh PODN (11730768_x_at) / RFU LINC00158 (11744669_a_at) / Fold change /veh LINC00158 (11744669_a_at) / RFU DUSP10 (11751237_a_at) / Fold change /veh DUSP10 (11751237_a_at) / RFU ID3 (11757404_x_at) / Fold change /veh ID3 (11757404_x_at) / RFU PLEKHG5 (11737974_s_at) / Fold change /veh PLEKHG5 (11737974_s_at) / RFU LRRC4B (11730491_at) / Fold change /veh LRRC4B (11730491_at) / RFU GIMAP4 (11747438_a_at) / Fold change /veh GIMAP4 (11747438_a_at) / RFU KRT8 (11758183_x_at) / Fold change /veh KRT8 (11758183_x_at) / RFU CNN1 (11734310_a_at) / Fold change /veh CNN1 (11734310_a_at) / RFU VPS37D (11726825_at) / Fold change /veh VPS37D (11726825_at) / RFU C10orf10 (11716522_x_at) / Fold change /veh C10orf10 (11716522_x_at) / RFU KIR2DL2 /// KIR2DL4 /// KIR2DL5A /// KIR2DL5B /// KIR2DS1 /// KIR2DS2 /// KIR2DS3 /// KIR2DS4 /// KIR3DL3 /// KIR3DL3 /// KIR3DS1 (11738374_at) / Fold change /veh KIR2DL2 /// KIR2DL4 /// KIR2DL5A /// KIR2DL5B /// KIR2DS1 /// KIR2DS2 /// KIR2DS3 /// KIR2DS4 /// KIR3DL3 /// KIR3DL3 /// KIR3DS1 (11738374_at) / RFU C1QL1 (11718748_at) / Fold change /veh C1QL1 (11718748_at) / RFU TMPRSS4 (11747572_a_at) / Fold change /veh TMPRSS4 (11747572_a_at) / RFU HAMP (11756126_x_at) / Fold change /veh HAMP (11756126_x_at) / RFU RNFT2 (11725882_a_at) / Fold change /veh RNFT2 (11725882_a_at) / RFU NR4A2 (11747474_a_at) / Fold change /veh NR4A2 (11747474_a_at) / RFU ABCC12 (11746883_a_at) / Fold change /veh ABCC12 (11746883_a_at) / RFU TMEM136 (11760407_x_at) / Fold change /veh TMEM136 (11760407_x_at) / RFU CLDN22 /// WWC2 (11732394_at) / Fold change /veh CLDN22 /// WWC2 (11732394_at) / RFU HLA-DPB1 (11760878_x_at) / Fold change /veh HLA-DPB1 (11760878_x_at) / RFU SPINT1 (11716480_a_at) / Fold change /veh SPINT1 (11716480_a_at) / RFU GAP43 (11754022_s_at) / Fold change /veh GAP43 (11754022_s_at) / RFU A4GNT (11735810_at) / Fold change /veh A4GNT (11735810_at) / RFU PRB3 (11715151_x_at) / Fold change /veh PRB3 (11715151_x_at) / RFU TUBB4B (11761932_at) / Fold change /veh TUBB4B (11761932_at) / RFU CAPN14 (11732068_a_at) / Fold change /veh CAPN14 (11732068_a_at) / RFU TMCC2 (11721928_a_at) / Fold change /veh TMCC2 (11721928_a_at) / RFU IRGQ (11745062_a_at) / Fold change /veh IRGQ (11745062_a_at) / RFU FAM174B (11720279_a_at) / Fold change /veh FAM174B (11720279_a_at) / RFU TMPRSS4 (11748680_a_at) / Fold change /veh TMPRSS4 (11748680_a_at) / RFU FAM212B (11763350_a_at) / Fold change /veh FAM212B (11763350_a_at) / RFU PLEKHG5 (11743358_a_at) / Fold change /veh PLEKHG5 (11743358_a_at) / RFU ZSCAN30 (11745921_a_at) / Fold change /veh ZSCAN30 (11745921_a_at) / RFU CMKLR1 (11741424_a_at) / Fold change /veh CMKLR1 (11741424_a_at) / RFU LOC101060620 /// MAPK8IP1 (11723275_at) / Fold change /veh LOC101060620 /// MAPK8IP1 (11723275_at) / RFU SPTSSB (11747773_x_at) / Fold change /veh SPTSSB (11747773_x_at) / RFU PRSS12 (11739890_at) / Fold change /veh PRSS12 (11739890_at) / RFU BIN1 (11741810_x_at) / Fold change /veh BIN1 (11741810_x_at) / RFU WNT11 (11732464_a_at) / Fold change /veh WNT11 (11732464_a_at) / RFU C10orf10 (11716521_a_at) / Fold change /veh C10orf10 (11716521_a_at) / RFU C5orf56 (11738089_at) / Fold change /veh C5orf56 (11738089_at) / RFU CYB561 (11721691_x_at) / Fold change /veh CYB561 (11721691_x_at) / RFU ANKRD19P (11752326_a_at) / Fold change /veh ANKRD19P (11752326_a_at) / RFU OR2T12 /// OR2T33 /// OR2T8 (11738714_s_at) / Fold change /veh OR2T12 /// OR2T33 /// OR2T8 (11738714_s_at) / RFU VCAN (11748164_a_at) / Fold change /veh VCAN (11748164_a_at) / RFU JSRP1 (11732532_at) / Fold change /veh JSRP1 (11732532_at) / RFU KRTAP10-11 (11738290_x_at) / Fold change /veh KRTAP10-11 (11738290_x_at) / RFU MYO3A (11730013_a_at) / Fold change /veh MYO3A (11730013_a_at) / RFU EBF3 (11725865_a_at) / Fold change /veh EBF3 (11725865_a_at) / RFU CAMK2N1 (11719241_x_at) / Fold change /veh CAMK2N1 (11719241_x_at) / RFU C5orf56 (11738088_a_at) / Fold change /veh C5orf56 (11738088_a_at) / RFU OLFML3 (11715873_a_at) / Fold change /veh OLFML3 (11715873_a_at) / RFU LOC100653217 /// NTM (11731650_a_at) / Fold change /veh LOC100653217 /// NTM (11731650_a_at) / RFU MAPK11 (11762145_a_at) / Fold change /veh MAPK11 (11762145_a_at) / RFU FIZ1 (11724087_x_at) / Fold change /veh FIZ1 (11724087_x_at) / RFU OASL (11726364_x_at) / Fold change /veh OASL (11726364_x_at) / RFU SOX15 (11748057_x_at) / Fold change /veh SOX15 (11748057_x_at) / RFU CD79A (11719716_a_at) / Fold change /veh CD79A (11719716_a_at) / RFU HIST1H1D (11736915_at) / Fold change /veh HIST1H1D (11736915_at) / RFU CASKIN2 (11723855_a_at) / Fold change /veh CASKIN2 (11723855_a_at) / RFU LOC730098 (11760151_x_at) / Fold change /veh LOC730098 (11760151_x_at) / RFU OR4N2 (11742367_at) / Fold change /veh OR4N2 (11742367_at) / RFU PRRT2 (11749266_a_at) / Fold change /veh PRRT2 (11749266_a_at) / RFU SNX32 (11753110_a_at) / Fold change /veh SNX32 (11753110_a_at) / RFU CDHR5 (11726645_a_at) / Fold change /veh CDHR5 (11726645_a_at) / RFU RCAN1 (11760418_a_at) / Fold change /veh RCAN1 (11760418_a_at) / RFU FAM167A (11723789_a_at) / Fold change /veh FAM167A (11723789_a_at) / RFU FAM26E (11764081_at) / Fold change /veh FAM26E (11764081_at) / RFU ISYNA1 (11749810_s_at) / Fold change /veh ISYNA1 (11749810_s_at) / RFU ACY1 (11761880_at) / Fold change /veh ACY1 (11761880_at) / RFU 11764098_at / Fold change /veh 11764098_at / RFU SAMD14 (11745864_x_at) / Fold change /veh SAMD14 (11745864_x_at) / RFU NPB (11741838_a_at) / Fold change /veh NPB (11741838_a_at) / RFU TMPRSS6 (11731388_a_at) / Fold change /veh TMPRSS6 (11731388_a_at) / RFU KRTAP10-2 (11738614_at) / Fold change /veh KRTAP10-2 (11738614_at) / RFU ARHGAP8 /// PRR5-ARHGAP8 (11727945_x_at) / Fold change /veh ARHGAP8 /// PRR5-ARHGAP8 (11727945_x_at) / RFU KRTAP5-7 /// NADSYN1 (11734609_at) / Fold change /veh KRTAP5-7 /// NADSYN1 (11734609_at) / RFU RASL12 (11751679_a_at) / Fold change /veh RASL12 (11751679_a_at) / RFU CDKN2B (11736163_a_at) / Fold change /veh CDKN2B (11736163_a_at) / RFU PRF1 (11729649_at) / Fold change /veh PRF1 (11729649_at) / RFU, ZNF638 /// ZNF638-IT1 / Fold change vs veh, ZNF638 /// ZNF638-IT1 / RFU, PANK3 / Fold change vs veh, PANK3 / RFU, SH3YL1 / Fold change vs veh, SH3YL1 / RFU, ZEB2 / Fold change vs veh, ZEB2 / RFU, NRIP1 / Fold change vs veh, NRIP1 / RFU, PTTG1IP / Fold change vs veh, PTTG1IP / RFU, CAPN2 / Fold change vs veh, CAPN2 / RFU, MED14 / Fold change vs veh, MED14 / RFU, SNORA58 / Fold change vs veh, SNORA58 / RFU, C1orf63 / Fold change vs veh, C1orf63 / RFU, LRRFIP1 / Fold change vs veh, LRRFIP1 / RFU, NDUFAF7 / Fold change vs veh, NDUFAF7 / RFU, SLC12A2 / Fold change vs veh, SLC12A2 / RFU, IBTK / Fold change vs veh, IBTK / RFU, ESF1 / Fold change vs veh, ESF1 / Fold change vs veh, TMEM50B / RFU, TAOK1 / Fold change vs veh, TAOK1 / RFU, ACBD3 / Fold change vs veh, ACBD3 / RFU, TMA16 / Fold change vs veh, TMA16 / RFU, RWDD3 / Fold change vs veh, RWDD3 / RFU, BCAT1 / Fold change vs veh, BCAT1 / RFU, EDEM3 / Fold change vs veh, EDEM3 / RFU, TMEM33 / Fold change vs veh, TMEM33 / RFU, WDR75 / Fold change vs veh, WDR75 / RFU, AHCTF1 / Fold change vs veh, AHCTF1 / RFU, TFRC / Fold change vs veh, TFRC / RFU, ZDHHC17 / Fold change vs veh, ZDHHC17 / RFU, NOM1 / Fold change vs veh, NOM1 / RFU, ARL8B / Fold change vs veh, ARL8B / RFU, ZBTB11 / Fold change vs veh, ZBTB11 / RFU, TAMM41 / Fold change vs veh, TAMM41 / RFU, KIAA1704 /// LOC100996395 / Fold change vs veh, KIAA1704 /// LOC100996395 / RFU, ING1 / Fold change vs veh, ING1 / RFU, TRMT61B / Fold change vs veh, TRMT61B / RFU, FUBP3 / Fold change vs veh, FUBP3 / RFU, TP53 / Fold change vs veh, TP53 / RFU, TNKS2 / Fold change vs veh, TNKS2 / RFU, ZFP14 / Fold change vs veh, ZFP14 / RFU, ACTR2 / Fold change vs veh, ACTR2 / RFU, PPP3R1 / Fold change vs veh, PPP3R1 / RFU, PIK3R1 / Fold change vs veh, PIK3R1 / RFU, HNRNPA1 / Fold change vs veh, HNRNPA1 / RFU, RNF170 / Fold change vs veh, RNF170 / RFU, ZNF28 / Fold change vs veh, ZNF28 / RFU, RNGTT / Fold change vs veh, RNGTT / RFU, OGT / Fold change vs veh, OGT / RFU, BRD1 / Fold change vs veh, BRD1 / RFU, MARS / Fold change vs veh, MARS / RFU, ZNF655 / Fold change vs veh, ZNF655 / RFU, FAHD1 / Fold change vs veh, FAHD1 / RFU, BDP1 / Fold change vs veh, BDP1 / RFU, LRRCC1 / Fold change vs veh, LRRCC1 / RFU, ARID1A / Fold change vs veh, ARID1A / RFU, ZNF146 / Fold change vs veh, ZNF146 / RFU, ZNF330 / Fold change vs veh, ZNF330 / RFU, GPN3 / Fold change vs veh, GPN3 / RFU, C9orf123 / Fold change vs veh, C9orf123 / RFU, N4BP2L2 / Fold change vs veh, N4BP2L2 / RFU, ARFIP1 / Fold change vs veh, ARFIP1 / RFU, FAM179B / Fold change vs veh, FAM179B / RFU, BCL10 / Fold change vs veh, BCL10 / RFU, UHRF1BP1L / Fold change vs veh, UHRF1BP1L / RFU, BET1 / Fold change vs veh, BET1 / RFU, CNOT2 / Fold change vs veh, CNOT2 / RFU, ZNF268 / Fold change vs veh, ZNF268 / Fold change vs veh, ZNF507 / RFU, DGCR2 / Fold change vs veh, DGCR2 / RFU, WDSUB1 / Fold change vs veh, WDSUB1 / Fold change vs veh, HSP90B1 /// MIR3652 / RFU, ADSS / Fold change vs veh, ADSS / RFU, GK / Fold change vs veh, GK / RFU, ZNF148 / Fold change vs veh, ZNF148 / RFU, TAF9 / Fold change vs veh, TAF9 / RFU, SLC1A5 / Fold change vs veh, SLC1A5 / RFU, SLMO2 / Fold change vs veh, SLMO2 / RFU, ABCC4 / Fold change vs veh, ABCC4 / RFU, LOC101060439 /// RAP1B / Fold change vs veh, LOC101060439 /// RAP1B / RFU, RFX7 / Fold change vs veh, RFX7 / RFU, GTPBP10 / Fold change vs veh, GTPBP10 / RFU, CNEP1R1 / Fold change vs veh, CNEP1R1 / RFU, BIVM-ERCC5 /// ERCC5 / Fold change vs veh, BIVM-ERCC5 /// ERCC5 / RFU, ILF3 / Fold change vs veh, ILF3 / RFU 11762660_at / Fold change /veh 11762660_at / RFU VCAN (11757783_s_at) / Fold change /veh VCAN (11757783_s_at) / RFU DDX43 (11728927_at) / Fold change /veh DDX43 (11728927_at) / RFU KRT8 (11758188_x_at) / Fold change /veh KRT8 (11758188_x_at) / RFU NKD1 (11759106_at) / Fold change /veh NKD1 (11759106_at) / RFU SRD5A1 (11742802_a_at) / Fold change /veh SRD5A1 (11742802_a_at) / RFU TPSAB1 /// TPSB2 (11721975_s_at) / Fold change /veh TPSAB1 /// TPSB2 (11721975_s_at) / RFU GSTM3 (11746129_a_at) / Fold change /veh GSTM3 (11746129_a_at) / RFU IL23R (11737362_x_at) / Fold change /veh IL23R (11737362_x_at) / RFU TMEM51 (11727254_a_at) / Fold change /veh TMEM51 (11727254_a_at) / RFU PIWIL2 (11732686_x_at) / Fold change /veh PIWIL2 (11732686_x_at) / RFU ORM1 (11744905_x_at) / Fold change /veh ORM1 (11744905_x_at) / RFU CCDC152 (11743942_at) / Fold change /veh CCDC152 (11743942_at) / RFU ECM1 (11717891_a_at) / Fold change /veh ECM1 (11717891_a_at) / RFU IL23R (11748794_a_at) / Fold change /veh IL23R (11748794_a_at) / RFU TNFAIP8L3 (11732012_x_at) / Fold change /veh TNFAIP8L3 (11732012_x_at) / RFU MBOAT4 (11741988_at) / Fold change /veh MBOAT4 (11741988_at) / RFU 11764193_at / Fold change /veh 11764193_at / RFU TMEM53 (11763286_at) / Fold change /veh TMEM53 (11763286_at) / RFU MAGEB2 (11727129_at) / Fold change /veh MAGEB2 (11727129_at) / RFU TMEM200A (11744735_a_at) / Fold change /veh TMEM200A (11744735_a_at) / RFU CCDC152 (11751479_a_at) / Fold change /veh CCDC152 (11751479_a_at) / RFU FAM211A (11726209_a_at) / Fold change /veh FAM211A (11726209_a_at) / RFU RGS16 (11746705_a_at) / Fold change /veh RGS16 (11746705_a_at) / RFU VCAN (11755009_s_at) / Fold change /veh VCAN (11755009_s_at) / RFU RHOB (11743442_s_at) / Fold change /veh RHOB (11743442_s_at) / RFU RGS16 (11720943_a_at) / Fold change /veh RGS16 (11720943_a_at) / RFU RGS16 (11720944_at) / Fold change /veh RGS16 (11720944_at) / RFU, VPS4B / Fold change vs veh, VPS4B / RFU, CREB1 / Fold change vs veh, CREB1 / RFU, DNAJC13 / Fold change vs veh, DNAJC13 / RFU, GNAQ / Fold change vs veh, GNAQ / RFU, CDK5R1 / Fold change vs veh, CDK5R1 / RFU, ZRANB3 / Fold change vs veh, ZRANB3 / RFU, CUL4A / Fold change vs veh, CUL4A / RFU, CCNY / Fold change vs veh, CCNY / RFU, UFL1 / Fold change vs veh, UFL1 / RFU, COG3 / Fold change vs veh, COG3 / RFU, DIAPH2 / Fold change vs veh, DIAPH2 / RFU, SKA2 / Fold change vs veh, SKA2 / RFU, AFF3 / Fold change vs veh, AFF3 / RFU, LMF1 / Fold change vs veh, LMF1 / RFU, IPO11 / Fold change vs veh, IPO11 / RFU, DFFB / Fold change vs veh, DFFB / RFU, FOXP1 / Fold change vs veh, FOXP1 / RFU, CARD8 / Fold change vs veh, CARD8 / RFU, STRN3 / Fold change vs veh, STRN3 / RFU, ADK / Fold change vs veh, ADK / RFU, RASSF2 / Fold change vs veh, RASSF2 / RFU, WIPF1 / Fold change vs veh, WIPF1 / RFU, LARP1B / Fold change vs veh, LARP1B / RFU, RASA1 / Fold change vs veh, RASA1 / RFU, RB1 / Fold change vs veh, RB1 / RFU, PPFIA1 / Fold change vs veh, PPFIA1 / RFU, MAT2A / Fold change vs veh, MAT2A / RFU, CCT5 / Fold change vs veh, CCT5 / RFU, WDR92 / Fold change vs veh, WDR92 / RFU, CUX1 / Fold change vs veh, CUX1 / RFU, TTC7A / Fold change vs veh, TTC7A / RFU, TMEM135 / Fold change vs veh, TMEM135 / RFU, DEPTOR / Fold change vs veh, DEPTOR / RFU, CPM / Fold change vs veh, CPM / RFU, DNAJB6 / Fold change vs veh, DNAJB6 / RFU, CACNA2D3 / Fold change vs veh, CACNA2D3 / RFU, DTX4 / Fold change vs veh, DTX4 / RFU, TFCP2 / Fold change vs veh, TFCP2 / RFU, GMCL1 /// GMCL1P1 / Fold change vs veh, GMCL1 /// GMCL1P1 / RFU, AEBP2 / Fold change vs veh, AEBP2 / RFU, SNHG1 /// SNORD22 /// SNORD25 /// SNORD26 /// SNORD27 /// SNORD28 /// SNORD29 /// SNORD31 / Fold change vs veh, SNHG1 /// SNORD22 /// SNORD25 /// SNORD26 /// SNORD27 /// SNORD28 /// SNORD29 /// SNORD31 / Fold change (Aza/veh), C12orf56 (ProbeSet 11735607_a_at) / Fold change (ACY-1035/veh), C12orf56 (ProbeSet 11735607_a_at) / Fold change (Aza/veh), FGFR1OP (ProbeSet 11751329_s_at) / Fold change (ACY-1035/veh), FGFR1OP (ProbeSet 11751329_s_at) / Fold change (Aza/veh), VPS36 (ProbeSet 11739960_a_at) / Fold change (ACY-1035/veh), VPS36 (ProbeSet 11739960_a_at) / RFU SYPL1 (11715823_x_at) / Fold change /veh SYPL1 (11715823_x_at) / RFU IGFBP7 (11715501_s_at) / Fold change /veh IGFBP7 (11715501_s_at) / RFU REEP3 (11722064_at) / Fold change /veh REEP3 (11722064_at) / RFU IGLL1 (11728026_x_at) / Fold change /veh IGLL1 (11728026_x_at): dose or concentration left out as unconfirmed
Conditions: ProbeSet 11753234_a_at; LIST B

Compound: Nc1ccc(-c2cccs2)cc1NC(=O)c1ccc2c(c1)cc(C1CC1)n2CCN1CCOCC1 [ACY-1035]
- RFU, TAMM41: 55.35 RFU
